Source: article PMC9898755 (The Journal of Biological Chemistry, 2023)

What was measured:
[1] = target: T1, Sec14^V155F (Saccharomyces cerevisiae, UniProt P24280, V155F); assay: [3H]-PtdIns-transfer assay, […] PITP, […] himbacine, […] inhibition; type: biochemical; conditions: read-out: % inhibition at 20 μM
T1 sequence (P24280 2-304 V155F): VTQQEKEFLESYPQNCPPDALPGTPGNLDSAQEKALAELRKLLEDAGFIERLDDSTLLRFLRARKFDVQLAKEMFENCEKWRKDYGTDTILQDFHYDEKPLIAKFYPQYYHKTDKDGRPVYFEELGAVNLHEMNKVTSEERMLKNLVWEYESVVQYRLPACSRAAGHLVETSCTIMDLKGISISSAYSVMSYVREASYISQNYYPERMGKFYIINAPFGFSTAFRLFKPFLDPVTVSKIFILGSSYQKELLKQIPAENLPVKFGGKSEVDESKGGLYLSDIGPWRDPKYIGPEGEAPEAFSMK

[2] = target: T2, Sec14^V154F (Saccharomyces cerevisiae, UniProt P24280, V154F); assay: as above; type: biochemical; conditions: read-out: % inhibition at 20 μM
T2 sequence (P24280 2-304 V154F): T1 sequence (P24280 2-304 V155F)

C[C@@H]1OC(=O)[C@H]2C[C@H]3CCCC[C@@H]3[C@@H](/C=C/[C@H]3CCC[C@H](C)N3C)[C@@H]12 [himbacine]
inhibition at 20 µM [1]: 73 ± 2.1%
inhibition at 20 µM [2]: 71 ± 1.2%
